Experiments:
Human ESCs [SHEF3] = experiment: Flow cytometry of pluripotency surface markers Tra-1-60 and SSEA4 in treated human ESCs; type: cell-based
Description: (A) Images show typical colonies formed following the indicated treatments. The scale bars represent 1 mm. (B) Histogram plots of ESCs analysed by flow cytometry following immunostaining with antibodies against the pluripotency markers Tra-1-60 or SSEA4. (C) RNA was extracted from the cells and RT-PCR analyses performed using primers specific to the pluripotency genes OCT4 and NANOG and to the house-keeping gene β-ACTIN. (D) Western blot analysis was performed on protein extracted from the cells and immunoblotted with antibodies specific to Oct4. Blots were stripped and reprobed with anti-Gapdh antibodies to assess equal loading. […] SHEF3 cells were treated with the indicated concentration of 1O for 7 days. Images show typical colony morphology. (F) Histogram plots of ESCs analysed by flow cytometry following staining with Tra-1-60 and SSEA4 antibodies. Analysis of percent positive cells and mean fluorescent intensity are indicated on the plots. (G) RT PCR analysis for the expression of OCT4 and NANOG. Bands for each of the genes were from the same gel with intervening samples removed. (H) Western blot analysis of OCT4 protein expression. Proteins bands were from the same immunoblot with intervening samples removed.
SHEF1 and SHEF3 human ESCs were obtained from the UKSCB and cultured as outlined in their protocols. Briefly, ESCs were maintained on mitomycin C-inactivated mouse embryonic fibroblast (MEF) feeder layers in KnockOut Dulbecco's modified Eagle's medium (KO DMEM) (Invitrogen) supplemented with 20% (vol/vol) KO serum replacement (KOSR; Invitrogen), 1 mM non-essential amino acids (NEAA; Invitrogen), 1 mM glutamine (Invitrogen), 0.1 mM 2-mercaptoethanol (BioRad), penicillin/streptomycin, and 4 ng/ml recombinant human FGF2 (Peprotech). Cultures were passage using 1 mg/ml collagenase at a ratio of 1:8 to 1:12 every 7 days. Cultures were transferred to a feeder-free, chemically defined culture system on ESC-qualified Matrigel® (BD) coated plates in mTeSR1® (Stem Cell Technologies) media according to Stem Cell Technologies' protocol.
ESCs were trypsinised (0.05% Trypsin-EDTA) for 10 minutes at 37° C. and resuspended in PBS containing 2% (v/v) FBS (FBS/PBS). […] Cells were washed and stained with secondary fluorescein isothiocyanate (FITC)-conjugated antibodies (SIGMA) for a further 30 minutes, if required. Flow cytometry was performed using a FACSCanto cytometer (Becton Dickenson) and the data were analysed with FACSDiva software. Dead cells were excluded for analyses based on forward and side scatter parameters.

[1] = tested on: definitive endoderm derived from human ESCs; experiment: Differentiation of chemically induced DE to hepatocyte-like cells; type: cell-based; details: DE induction with compound, then HGF/FGF4, then HGF/FGF4/OSM/Dex
Description: (A) Schematic representation of the differentiation protocol. (B) Images of differentiated cells at stage II (d14) and stage III (d25). (C) RT-PCR expression analyses of RNA prepared from cells at the indicated stages of differentiation, using primers specific to the genes indicated. RNA extracted from human liver was used as a positive control. β-ACTIN was used as a housekeeping gene. (D) Expression of FoxA2 and the early hepatic markers HNF4α, AFP and TTR in cells at stage II and stage III of differentiation were analyzed by immunofluorescence. Scale bar represents 50 μm. (E) Media (1 μl) from stage III (d25) cells, conditioned for 48 hours, and from a media alone (MA) control were analysed by immunoblotting with an antibody to AFP. Purified AFP and media conditioned from HUH7 cells were run as controls. (F) ELISA assay for human Albumin from stage III (d25) media. (G) Differentiation of BIO-derived DE cells to hepatocyte-like cells. SHEF3 ESCs were treated with 2 μM BIO for 5 days to induce differentiation to the DE. ESCs were then cultured under hepatic induction and maturation conditions as outlined in the Experimental Procedures and FIG. 5A. Expression of FOXA2 and the early hepatic markers HNF4α, AFP and TTR in ESCs at stage II and stage III of differentiation were analyzed by immunofluorescence. Scale bar represents 50 μm. […]

[2] = MEF culture, concentration 0.5, 7 days
[3] = MEF culture, concentration 2, 7 days
[4] = mTeSR1, concentration 0.5, 7 days
[5] = mTeSR1, concentration 2, 7 days

With `O=C1NC(=O)C2=C1c1cn(c3ccccc13)CCOCCOCCOCCOCCn1cc2c2ccccc21` [1M] the “Expression of pluripotency markers Tra-1-60 and SSEA4 by flow cytometry (in words)” value (Human ESCs [SHEF3]; 7 days treatment) was “dramatic decrease in expression”, the Tra1-60 % pos (Human ESCs [SHEF3]; MEF culture, concentration 0.5 (unit not given), 7 days) was 82.1% and the SSEA4 % pos (Human ESCs [SHEF3]; [2]) was 90.4%. For the same compound, the “SSEA4 mean (mean fluorescence intensity)” value (Human ESCs [SHEF3]; [2]) was 5805, the “Tra1-60 mean (mean fluorescence intensity)” value (from here on “Tra1-60 mean”) (Human ESCs [SHEF3]; [2]) was 9403 and the Tra1-60 % pos (Human ESCs [SHEF3]; MEF culture, concentration 2 (unit not given), 7 days) was 18.9%. The SSEA4 % pos (Human ESCs [SHEF3]; [3]) was 72.9%, the “SSEA4 mean (mean fluorescence intensity)” value (Human ESCs [SHEF3]; [3]) was 1656 and the “Tra1-60 mean” value (Human ESCs [SHEF3]; [3]) was 1092. It also gave a Tra1-60 % pos (Human ESCs [SHEF3]; mTeSR1 (feeder-free, Matrigel), concentration 0.5, 7 days) of 85.9%, a Tra1-60 % pos (Human ESCs [SHEF3]; mTeSR1 (feeder-free, Matrigel), concentration 2, 7 days) of 25.6% and an SSEA4 % pos (Human ESCs [SHEF3]; [4]) of 88.6%. The “SSEA4 mean (mean fluorescence intensity)” value (Human ESCs [SHEF3]; [4]) was 7578, the “Tra1-60 mean” value (Human ESCs [SHEF3]; [4]) was 11955 and the SSEA4 % pos (Human ESCs [SHEF3]; [5]) was 52.9%. For the same compound, the “SSEA4 mean (mean fluorescence intensity)” value (Human ESCs [SHEF3]; [5]) was 465, the “Tra1-60 mean” value (Human ESCs [SHEF3]; [5]) was 312 and the “Potential of compound-derived DE to form hepatocyte-like cells” value [1] was “has the potential to differentiate into cells with hepatocyte characteristics”.
